# Assay results reported in PMC6722389, “Cryo-EM structure of the Ustilago maydis kinesin-5 motor domain bound to microtubules” (Journal of Structural Biology, 2019).
# Columns and labels:
# UmKin5 = target: T1, UmKin5 (Mycosarcoma maydis, UniProt A0A0D1DQH0); test: cryo-EM structure; details: microtubule-bound (bovine brain tubulin, paclitaxel); 5 mM AMPPNP, 1 mM MgCl2, pH 6.8; nucleotide binding site; overall resolution 4.3 Å, motor ~5-7 Å
# T1 construct: gene UMAG_10678; motor domain residues 73-456 without N-terminal extension; N-terminal His6 tag removed by TEV protease; E. coli BL21*(DE3); monomeric
# N+UmKin5 = target: T2, N+UmKin5 (Mycosarcoma maydis, UniProt A0A0D1DQH0); test: cryo-EM structure; details: microtubule-bound (bovine brain tubulin, paclitaxel); 5 mM AMPPNP, 1 mM MgCl2, pH 6.8; nucleotide binding site; overall resolution 4.5 Å, motor ~5-7 Å
# T2 construct: gene UMAG_10678; motor domain with 72-residue N-terminal extension, residues 1-456; N-terminal His6 tag removed by TEV protease; E. coli BL21*(DE3); monomeric
structure (smiles),measurement,setting,value
Nc1ncnc2c1ncn2[C@@H]1O[C@H](COP(=O)(O)OP(=O)(O)NP(=O)(O)O)[C@@H](O)[C@H]1O [AMPPNP],cryo-EM structure,UmKin5,Strong density is visible at the nucleotide binding site consistent with the presence of AMPPNP.
same,cryo-EM structure,N+UmKin5,Both constructs bound the MT lattice in the presence of the non-hydrolysable ATP analogue AMPPNP
